5 molecules from US20100137377A1, “NOVEL COMPOUNDS” (SOREN EBDRUP ET AL, priority 2007, published 2010) can be followed below.

Several values for one entry are separate records, joined by “and”; a condition that tells them apart may be missing. Identical values can stand only once.

The target of the test is T1, h-11βHSD1 (Homo sapiens, UniProt P28845).
T1 construct: made in house
T1 sequence (P28845 whole entry): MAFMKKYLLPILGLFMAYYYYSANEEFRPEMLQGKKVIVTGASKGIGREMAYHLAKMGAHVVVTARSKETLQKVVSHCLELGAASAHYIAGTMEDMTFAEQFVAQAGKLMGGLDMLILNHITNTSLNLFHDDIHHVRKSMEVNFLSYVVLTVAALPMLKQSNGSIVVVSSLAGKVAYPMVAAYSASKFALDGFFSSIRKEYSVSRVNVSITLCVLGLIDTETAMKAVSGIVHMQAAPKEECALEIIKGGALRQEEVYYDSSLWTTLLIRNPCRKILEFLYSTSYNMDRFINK
The experiment in a line: 11βHSD1 enzyme assay (SPA, 3H-cortisone to 3H-cortisol). It is filed as biochemical. Particulars: extract of yeast transformed with h-11βHSD1; 120 nM 3H-cortisone, 4 mM β-NADPH, 60 min at 30° C.; several determinations per cell separated by ';'. The procedure:
^3H-cortisone and anti-rabbit Ig coated scintillation proximity assay (SPA) beads were purchased from Amersham Pharmacia Biotech, β-NADPH was from Sigma and rabbit anti-cortisol antibodies were from Fitzgerald. An extract of yeast transformed with h-11βHSD1 (Hutt et al., FEBS Lett., 441, 25 (1998)) was used as the source of enzyme. The test compounds were dissolved in DMSO (10 mM). All dilutions were performed in a buffer containing 50 mM TRIS-HCl (Sigma Chemical Co), 4 mM EDTA (Sigma Chemical Co), 0.1% BSA (Sigma Chemical Co), 0.01% Tween-20 (Sigma Chemical Co) and 0.005% bacitracin (Novo Nordisk A/S), pH=7.4. Optiplate 96 wells plates were supplied by Packard. The amount of ^3H-cortisol bound to the SPA beads was measured on TopCount NXT, Packard.
h-11βHSD1, 120 nM ^3H-cortisone, 4 mM β-NADPH, antibody (1:200), serial dilutions of test compound and SPA particles (2 mg/well) were added to the wells. The reaction was initiated by mixing the different components and was allowed to proceed under shaking for 60 min at 30° C. The reaction was stopped be the addition of 10 fold excess of a stopping buffer containing 500 μM carbenoxolone and 1 μM cortisone. Data was analysed using GraphPad Prism software.
As usually defined, the IC50 is the point on the concentration scale where inhibition reaches its midpoint. Read a low IC50 as greater potency in that assay. Turning to `N#Cc1ccc(Oc2ccc(C(=O)NC3C4CC5CC3CC(O)(C5)C4)cc2)nc1` (centres unmarked) [Compound 2, 4-(5-Cyano-pyridin-2-yloxy)-N-(5-hydroxy-adamantan-2-yl)-benzamide], the IC50 is 259 nM and 305 nM.
The value for `O=C(NC1C2CC3CC1CC(O)(C3)C2)c1ccc(Oc2ccc(Cl)cn2)cc1` (centres unmarked) [Compound 3, 4-(5-Chloro-pyridin-2-yloxy)-N-(5-hydroxy-adamantan-2-yl)-benzamide] was 56 nM and 89 nM.
The figure for `CN(C(=O)c1ccc(Oc2ccc(Cl)cn2)cc1)C1CCC(CO)CC1` (centres unmarked) [Compound 5, 4-(5-Chloro-pyridin-2-yloxy)-N-(4-hydroxymethyl-cyclohexyl)-N-methyl-benzamide] is 17 nM and 27 nM; for `O=C(NC1C2CC3CC1CC(CO)(C3)C2)c1ccc(Oc2ccc(Cl)cn2)cc1` (centres unmarked) [Compound 4, 4-(5-Chloro-pyridin-2-yloxy)-N-(5-hydroxymethyl-adamantan-2-yl)-benzamide] it is 51 nM (2×) and 56 nM; for `O=C(NC1C2CC3CC1CC(O)(C3)C2)c1ccc(Oc2ccc(Cl)cc2Cl)cc1` (centres unmarked) [Compound 1, 4-(2,4-Dichloro-phenoxy)-N-(5-hydroxy-adamantan-2-yl)-benzamide] it is 73 nM and 81 nM.
